Test results published in patent US20080081041A1 (priority 2006, published 2008).
Where two headings read alike, the source gives them in different places.

Key:
[1] = test system: DU-145 human prostate xenograft; test: DU-145 human prostate xenograft in nude mice, time to tumor volume of 1000 mm3; type: in vivo; conditions: for % TGD (tumor growth delay): [(T-C)/C]×100, versus PBS Group 1; for tumor growth delay vs. control (in words): monotherapy versus Group 1; for T-C (difference between median TTE of treated versus control group): same dosing, versus PBS Group 1; for Median TTE: time to tumor volume 1000 mm3, CNTO328 10 mg/Kg i.p. biweekly, Mitoxantrone 0.75 mg/Kg i.v. once per D for 5 D, n=8
From the text: Nude mice were implanted subcutaneously with 1 mm3 fragments of DU-145 human prostate xenograft tissue. […] Dosing was initiated on Day 1 as follows: […] The study endpoint was the time taken for tumors to reach a volume of 1000 mm3 at which time each animal was euthanized. Days in Progress=56. Calculation using the TTE=time to endpoint are: T−C=difference between median TTE (days) of treated versus control group, TGD=tumor growth delay. % TGD=[(T-C)/C]×100. The Logrank test was used to analyze the significance of the differences between the TTE values of treated and control groups. Two-tailed statistical analyses were conducted at significance level P-0.05. Statistical Significance: ns=not significant, **=P<0.01 compared to group indicated.

[2] = test system: DU145 cells; test: DU145 cell killing, ATPlite assay (ATP production); type: cell-based, human; conditions: for timecourse of cell killing / EC50 / effect on sensitivity / resistance of the cells to mitoxantrone: DU145 cells; for EC50: Homo sapiens, DU-145, read-out: EC50 values for killing by Mitoxantrone, CNTO 328 at 20 μg/mL where combined; for effect on sensitivity / resistance of the cells to mitoxantrone: 48 and 72 hour timepoints
Description: DU145 cells were established from a metastatic central nervous system lesion of androgen-independent prostate carcinoma (Stone, K. R. et al. 1978 Int J Cancer 21: 274-81). […] Thus, study of direct interactions of chemotherapy agents and IL6 modulators can be studied on prostate tumor cells in vitro.
DU145 cells were plated at 500 cells/well in a 96 well plate and allowed to adhere for several hours. Treatments were added and plates were incubated at 37° C. for either 24, 48, or 72 hours. […] CNTO 328 was tested at 20 μg/mL and IL-6 was tested at both 10 and 50 ng/mL. Plates were analyzed for ATP production using the ATPlite assay from Perkin Elmer.

[3] = test system: metastatic HRPC; conditions: docetaxel every 3 weeks; cited from earlier work
[4] = test system: human prostate tumor; conditions: human prostate tumor-bearing mice; cited from earlier work

| Molecule | % TGD (tumor growth delay) [1] | tumor growth delay vs. control (in words) [1] | T-C (difference between median TTE of treated versus control group) [1] | Median TTE [1] | effect on sensitivity / resistance of the cells to mitoxantrone [2] | further results |
| --- | --- | --- | --- | --- | --- | --- |
| O=C1c2c(O)ccc(O)c2C(=O)c2c(NCCNCCO)ccc(NCCNCCO)c21 [Mitoxantrone, 1,4-Dihydroxy-5,8-bis[[2-[(2-hydroxyethyl)amino]ethyl]amino]-9,10-anthracenedione] | 29% | no significant tumor growth delay | 6.2 days | 27.7 days |  | mean body weight nadir ([1]; day 10): −5%; timecourse of cell killing ([2]; 48 and 72 hours (FIG. 1)): greatest reduction in cell survival; timecourse of cell killing ([2]; 24 hours (FIG. 1)): minimal cell death; EC50 ([2]; 48 Hours): 23 nM; EC50 ([2]; 72 Hours): 10.8 nM |
| CC(=O)O[C@@]12CO[C@@H]1C[C@H](O)[C@@]1(C)C(=O)[C@H](O)C3=C(C)[C@@H](OC(=O)[C@H](O)[C@@H](NC(=O)OC(C)(C)C)c4ccccc4)C[C@@](O)([C@@H](OC(=O)c4ccccc4)[C@H]21)C3(C)C [docetaxel] |  |  |  |  |  | improvement of survival over the reference M/P regimen [3]: 2-2.5 months |
| IL-6: 22-27 kDa secreted glycoprotein cytokine, added exogenously |  |  |  |  | did not increase resistance to the effect of mitoxantrone |  |
| CNTO 328: an anti-IL-6 monoclonal antibody, derived from the CLB-8 anti-IL-6 antibody (antibody, chains of the INN, looked up, V domains shown) VH: EVQLVESGGKLLKPGGSLKLSCAASGFTFSSFAMSWFRQSPEKRLEWVAEISSGGSYTYYPDTVTGRFTISRDNAKNTLYLEMSSLRSEDTAMYYCARGLWGYYALDYWGQGTSVTVSS VL: QIVLIQSPAIMSASPGEKVTMTCSASSSVSYMYWYQQKPGSSPRLLIYDTSNLASGVPVRFSGSGSGTSYSLTISRMEAEDAATYYCQQWSGYPYTFGGGTKLEIK | −21% | no significant tumor growth delay | -4.6 days | 16.9 days | does not significantly alter the sensitivity of the cells to mitoxantrone | proliferation of the DU145 cells ([2]; agent alone (not shown)): ineffective at reducing proliferation; effect of monotherapy on tumor and survival [4]: block conversion to androgen independent growth, induce tumor apoptosis, and prolong survival |
